test system: rabbit brush border membrane vesicles (BBMV); assay: inhibition of cholesterol uptake in rabbit brush border membrane vesicles (scavenger receptor-mediated uptake of radiolabelled cholesterol ester from donor particles); format: biochemical; conditions: inhibition of uptake of radiolabelled cholesterol ester from loaded donor particles into the BBMV bilayer; test concentration not given
Method: Chem. Int. Ed. 2004, 43, 4653-4656; Kvaerno, L. et. al. Org. Lett. 2005, 7, 1145-1148, van Bennekum, A. et. al. Biochemistry 2005, 44, 4517-4525).
The compounds of the invention (commercially obtained or prepared according to Wu, G. Z. et al., J. Org. Chem. 1999, 64, 3714-3718) together with the glucuronide (the metabolite of ezetimibe, prepared according to Vaccaro and Davis, Bioorg. Med. Chem. Lett. 1998, 8, 313-318) as appropriate reference compounds were evaluated by well-established methods to determine their inhibition of cholesterol uptake in rabbit brush border membrane vesicles (BBMV) (Table 1). Briefly, the scavenger receptor-mediated uptake of radiolabelled cholesterol ester from the loaded donor particles into the BBMV bilayer was measured in the presence of various compounds of the invention and appropriate reference compounds (Kvaerno, L. et al, Angew. Chem. Int. Ed. 2004, 43, 4653-4656; Kvaerno, L. et al, Org. Lett. 2005, 7, 1145-1148).

`CCCNC(=O)c1ccc(N2C(=O)O[C@H](CO)[C@H]2c2ccc(O)cc2)cc1` [Compound 15, 4-((4R,5S)-5-(hydroxymethyl)-4-(4-hydroxyphenyl)-2-oxooxazolidin-3-yl)-N-propylbenzamide] and `CN(C)CCNC(=O)c1ccc(N2C(=O)O[C@H](CO)[C@H]2c2ccc(O)cc2)cc1` [Compound 33, N-(2-(dimethylamino)ethyl)-4-((4R,5S)-5-(hydroxymethyl)-4-(4-hydroxyphenyl)-2-oxooxazolidin-3-yl)-benzamide] are within error of each other in “CAI (%) Inhibition” value: 15 ± 4% for the first, 16 ± 2% for the second.

`O=C1O[C@H](Cn2nncc2-c2ccccc2)[C@@H](c2ccc(O)cc2)N1c1ccc(F)cc1` [Compound 29, (4R, 5R)-3-(4-fluorophenyl)-4-(4-hydroxyphenyl)-5-((5-phenyl-1H-1,2,3-triazol-1-yl)methyl)oxazolidin-2-one] and `O=C1O[C@H](Cn2nncc2-c2ccc(F)cc2)[C@@H](c2ccc(O)cc2)N1c1ccc(F)cc1` [Compound 30, (4R,5R)-3-(4-fluorophenyl)-5-((5-(4-fluorophenyl)-1H-1,2,3-triazol-1-yl)methyl)-4-(4-hydroxyphenyl)oxazolidin-2-one] are within error of each other in “CAI (%) Inhibition” value: 15 ± 1% for the first, 16 ± 1% for the second.

`C[N+](C)(C)CCNC(=O)c1ccc(N2C(=O)O[C@H](CO)[C@H]2c2ccc(OCc3ccccc3)cc2)cc1` [Compound 34, ((4R,5S)-4-(4-(benzyloxy)phenyl)-5-(hydroxy-methyl)-2-oxooxazolidin-3-yl)-N-(2-(trimethylamonium-iodide)ethyl)benzamide] and `O=C(NCCN1CCOCC1)c1ccc(N2C(=O)O[C@H](CO)[C@H]2c2ccc(OCc3ccccc3)cc2)cc1` [Compound 36, 4-((4R,5S)-4-(4-(benzyloxy)phenyl)-5-(hydroxymethyl)-2-oxooxazolidin-3-yl)-N-(2-morpholinoethyl)-benzamide] are within error of each other in “CAI (%) Inhibition” value: 29 ± 3% for the first, 33 ± 2% for the second.

`C[N+](C)(C)CCNC(=O)c1ccc(N2C(=O)O[C@H](CO)[C@H]2c2ccc(O)cc2)cc1` [Compound 35, ((4R,5S)-4-(4-hydroxyphenyl)-5-(hydroxymethyl)-2-oxooxazolidin-3-yl)-N-(2-(trimethylamoniumbromide)ethyl)-benzamide] and `O=C(NCCN1CCOCC1)c1ccc(N2C(=O)O[C@H](CO)[C@H]2c2ccc(O)cc2)cc1` [Compound 37, 4-((4R,5S)-5-(hydroxymethyl)-4-(4-hydroxy-phenyl)-2-oxooxazolidin-3-yl)-N-(2-morpholinoethyl)-benzamide] are within error of each other in “CAI (%) Inhibition” value: 20 ± 1% for the first, 21 ± 3% for the second.

Going from `C[N+]1(CCNC(=O)c2ccc(N3C(=O)O[C@H](CO)[C@H]3c3ccc(OCc4ccccc4)cc3)cc2)CCOCC1.[I-]` [Compound 38, 4-(2-(4-((4R,5S)-4-(4-(benzyloxy)phenyl)-5-(hydroxymethyl)-2-oxooxazolidin-3-yl)benzamido)ethyl)-4-methylmorpholin-4-ium iodide] to `O=C1[C@H](CC[C@H](O)c2ccc(F)cc2)[C@@H](c2ccc(O)cc2)N1c1ccc(F)cc1` [Ezetimibe, reference compound], the “CAI (%) Inhibition” value falls from 24 ± 2% to 15 ± 4%.

Source: patent publication EP1958941A1, “Oxazolidinones and their use as hypocholesterolemic agents” (Lipideon Biotechnology AG, priority 2007, dated 2008)
